Organism: Rattus norvegicus
Test: DrugMatrix - Regimen: Daily Repeat
Type: toxicity, organism-based, Sprague-Dawley
Set-up: regimen Daily Repeat, gender Male, age 6-8 weeks
Details: in vivo, iv, 50 mg/kg, dose level Low, vehicle 100 % SALINE; for ABSOLUTE BASOPHIL / ABSOLUTE EOSINOPHIL / ABSOLUTE LYMPHOCYTE / ABSOLUTE MONOCYTE / ABSOLUTE SEGMENTED NEUTROPHIL / BASOPHIL / EOSINOPHIL / ERYTHROCYTE COUNT / HEMATOCRIT / HEMOGLOBIN / LEUKOCYTE COUNT / LYMPHOCYTE / MEAN CORPUSCULAR HEMOGLOBIN / MEAN CORPUSCULAR HEMOGLOBIN CONCENTRATION / MEAN CORPUSCULAR VOLUME / MONOCYTE / NEUTROPHIL / NUCLEATED RED BLOOD CELLS / PLATELET COUNT: tissue Blood; for ALANINE AMINOTRANSFERASE / ALBUMIN / ALKALINE PHOSPHATASE / ASPARTATE AMINOTRANSFERASE / BLOOD UREA NITROGEN / CARBON DIOXIDE / CHLORIDE / CHOLESTEROL / CREATINE PHOSPHOKINASE / CREATININE / GLUCOSE / LACTATE DEHYDROGENASE / LIPASE / PHOSPHORUS / POTASSIUM / SODIUM / TOTAL BILIRUBIN / TOTAL PROTEIN / URIC ACID: tissue Plasma

Q: What does the source list for `CC1(C)S[C@@H]2[C@H](NC(=O)Cc3ccccc3)C(=O)N2[C@H]1C(=O)O` [PENICILLIN G]?
A: ABSOLUTE BASOPHIL (72 h, time 3 day): 0 CELLS/uL; ABSOLUTE EOSINOPHIL (72 h, time 3 day): 74.67 CELLS/uL; ABSOLUTE LYMPHOCYTE (72 h, time 3 day): 13141.67 CELLS/uL; ABSOLUTE MONOCYTE (72 h, time 3 day): 398.33 CELLS/uL; ABSOLUTE SEGMENTED NEUTROPHIL (72 h, time 3 day): 1318.67 CELLS/uL; BASOPHIL (72 h, time 3 day): 0%; EOSINOPHIL (72 h, time 3 day): 0.67%; ERYTHROCYTE COUNT (72 h, time 3 day): 5.85 x10E6/uL; HEMATOCRIT (72 h, time 3 day): 37.47%; HEMOGLOBIN (72 h, time 3 day): 13.8 G/DL; LEUKOCYTE COUNT (72 h, time 3 day): 14.93 x10E3/uL; LYMPHOCYTE (72 h, time 3 day): 87.67%; MEAN CORPUSCULAR HEMOGLOBIN (72 h, time 3 day): 23.6 pg; MEAN CORPUSCULAR HEMOGLOBIN CONCENTRATION (72 h, time 3 day): 36.87 G/DL; MEAN CORPUSCULAR VOLUME (72 h, time 3 day): 64.07 fL; MONOCYTE (72 h, time 3 day): 2.67%; NEUTROPHIL (72 h, time 3 day): 9%; NUCLEATED RED BLOOD CELLS (72 h, time 3 day): 0 /100WBC; PLATELET COUNT (72 h, time 3 day): 1362 x10E3/uL; ALANINE AMINOTRANSFERASE (72 h, time 3 day): 56.33 u/L; ALBUMIN (72 h, time 3 day): 4.37 G/DL; ALKALINE PHOSPHATASE (72 h, time 3 day): 354 u/L; ASPARTATE AMINOTRANSFERASE (72 h, time 3 day): 76.67 u/L; BLOOD UREA NITROGEN (72 h, time 3 day): 13.33 mg/dL; CARBON DIOXIDE (72 h, time 3 day): 24.33 mmol/L; CHLORIDE (72 h, time 3 day): 103.67 MEQ/L; CHOLESTEROL (72 h, time 3 day): 82.67 mg/dL; CREATINE PHOSPHOKINASE (72 h, time 3 day): 122 u/L; CREATININE (72 h, time 3 day): 0.21 mg/dL; GLUCOSE (72 h, time 3 day): 172 mg/dL; LACTATE DEHYDROGENASE (72 h, time 3 day): 124 u/L; LIPASE (72 h, time 3 day): 10 u/L; PHOSPHORUS (72 h, time 3 day): 12.63 mg/dL; POTASSIUM (72 h, time 3 day): 6.23 MEQ/L; SODIUM (72 h, time 3 day): 146.33 MEQ/L; TOTAL BILIRUBIN (72 h, time 3 day): 0.23 mg/dL; TOTAL PROTEIN (72 h, time 3 day): 6.07 G/DL; URIC ACID (72 h, time 3 day): 1.57 mg/dL; ABSOLUTE BASOPHIL (120 h, time 5 day): 0 CELLS/uL; ABSOLUTE EOSINOPHIL (120 h, time 5 day): 0 CELLS/uL; ABSOLUTE LYMPHOCYTE (120 h, time 5 day): 11488.33 CELLS/uL; ABSOLUTE MONOCYTE (120 h, time 5 day): 166 CELLS/uL; ABSOLUTE SEGMENTED NEUTROPHIL (120 h, time 5 day): 512.33 CELLS/uL; BASOPHIL (120 h, time 5 day): 0%; EOSINOPHIL (120 h, time 5 day): 0%; ERYTHROCYTE COUNT (120 h, time 5 day): 5.58 x10E6/uL; HEMATOCRIT (120 h, time 5 day): 36.13%; HEMOGLOBIN (120 h, time 5 day): 13.43 G/DL; LEUKOCYTE COUNT (120 h, time 5 day): 12.17 x10E3/uL; LYMPHOCYTE (120 h, time 5 day): 94.33%; MEAN CORPUSCULAR HEMOGLOBIN (120 h, time 5 day): 24.07 pg; MEAN CORPUSCULAR HEMOGLOBIN CONCENTRATION (120 h, time 5 day): 37.17 G/DL; MEAN CORPUSCULAR VOLUME (120 h, time 5 day): 64.8 fL; MONOCYTE (120 h, time 5 day): 1.33%; NEUTROPHIL (120 h, time 5 day): 4.33%; NUCLEATED RED BLOOD CELLS (120 h, time 5 day): 0 /100WBC; PLATELET COUNT (120 h, time 5 day): 1442 x10E3/uL; ALANINE AMINOTRANSFERASE (120 h, time 5 day): 49.33 u/L; ALBUMIN (120 h, time 5 day): 4.27 G/DL; ALKALINE PHOSPHATASE (120 h, time 5 day): 371 u/L; ASPARTATE AMINOTRANSFERASE (120 h, time 5 day): 81.33 u/L; BLOOD UREA NITROGEN (120 h, time 5 day): 15.33 mg/dL; CARBON DIOXIDE (120 h, time 5 day): 21.67 mmol/L; CHLORIDE (120 h, time 5 day): 107 MEQ/L; CHOLESTEROL (120 h, time 5 day): 79.33 mg/dL; CREATINE PHOSPHOKINASE (120 h, time 5 day): 245.67 u/L; CREATININE (120 h, time 5 day): 0.42 mg/dL; GLUCOSE (120 h, time 5 day): 151.67 mg/dL; LACTATE DEHYDROGENASE (120 h, time 5 day): 117.67 u/L; LIPASE (120 h, time 5 day): 11.5 u/L; PHOSPHORUS (120 h, time 5 day): 12.33 mg/dL; POTASSIUM (120 h, time 5 day): 6.79 MEQ/L; SODIUM (120 h, time 5 day): 144.2 MEQ/L; TOTAL BILIRUBIN (120 h, time 5 day): 0.23 mg/dL; TOTAL PROTEIN (120 h, time 5 day): 6.07 G/DL; URIC ACID (120 h, time 5 day): 2 mg/dL
